Test results as given in ChEMBL document CHEMBL4385604, “Identification of Pyrrolo[2,3- d]pyrimidine-Based Derivatives as Potent and Orally Effective Fms-like Tyrosine Receptor Kinase 3 (FLT3) Inhibitors for Treating Acute Myelogenous Leukemia” (J Med Chem, 2019).

How the values were obtained:
[1] = system: MOLM-13; test: Induction of apoptosis in human MOLM13 cells after 48 hrs by Annexin V/propidium iodide staining-based flow cytometry; assay type: functional, cell-based
[2] = system: MV4-11; test: Induction of apoptosis in human MV4-11 cells assessed as viable cells at 10 nM after 48 hrs by Annexin V/propidium iodide staining based flow cytometry (reference value: 94.4%); assay type: functional; details: MV4-11, 48 h, read-out: Activity
[3] = system: MV4-11; test: Induction of apoptosis in human MV4-11 cells assessed as necrotic cells at 10 uM after 48 hrs by Annexin V/propidium iodide staining based flow cytometry (reference value: 0.06%); assay type: functional
[4] = system: MV4-11; test: Induction of apoptosis in human MV4-11 cells assessed as late apoptotic cells at 10 uM after 48 hrs by Annexin V/propidium iodide staining based flow cytometry (reference value: 2.83%); assay type: functional
[5] = target: T1, Receptor-type tyrosine-protein kinase FLT3 (Homo sapiens, UniProt P36888); test: Binding affinity to wild-type human partial length FLT3 (V592 to Y969 residues) expressed in Escherichia coli after 1 hr by qPCR analysis
T1 sequence (P36888 whole entry): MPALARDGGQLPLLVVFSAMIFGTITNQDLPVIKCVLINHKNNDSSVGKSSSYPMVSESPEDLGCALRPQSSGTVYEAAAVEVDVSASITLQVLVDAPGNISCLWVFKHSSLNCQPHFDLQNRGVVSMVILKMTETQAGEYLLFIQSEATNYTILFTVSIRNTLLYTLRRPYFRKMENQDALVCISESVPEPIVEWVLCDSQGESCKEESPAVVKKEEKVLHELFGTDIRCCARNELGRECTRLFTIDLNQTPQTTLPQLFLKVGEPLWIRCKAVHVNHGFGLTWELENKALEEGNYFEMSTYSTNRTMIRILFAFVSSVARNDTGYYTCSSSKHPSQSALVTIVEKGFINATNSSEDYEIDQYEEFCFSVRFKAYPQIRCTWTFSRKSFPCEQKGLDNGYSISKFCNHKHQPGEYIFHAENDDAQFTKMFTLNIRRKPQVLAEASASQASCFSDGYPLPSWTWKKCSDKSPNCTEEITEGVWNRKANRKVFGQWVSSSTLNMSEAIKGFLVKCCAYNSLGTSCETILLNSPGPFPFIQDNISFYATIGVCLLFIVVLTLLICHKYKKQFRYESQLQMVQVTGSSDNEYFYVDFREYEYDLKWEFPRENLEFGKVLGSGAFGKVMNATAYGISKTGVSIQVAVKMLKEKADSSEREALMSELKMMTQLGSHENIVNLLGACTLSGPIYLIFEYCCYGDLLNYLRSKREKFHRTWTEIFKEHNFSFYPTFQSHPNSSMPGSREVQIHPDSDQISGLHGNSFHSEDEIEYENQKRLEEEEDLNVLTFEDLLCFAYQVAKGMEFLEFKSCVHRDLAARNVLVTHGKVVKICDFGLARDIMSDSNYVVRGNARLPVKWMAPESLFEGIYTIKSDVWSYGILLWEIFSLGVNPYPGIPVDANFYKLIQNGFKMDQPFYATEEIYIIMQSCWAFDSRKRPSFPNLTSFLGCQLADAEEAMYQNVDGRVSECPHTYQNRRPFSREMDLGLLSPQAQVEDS

[6] = system: MOLM-13; test: Induction of apoptosis in human MOLM13 cells assessed as necrotic cells at 1 nM after 48 hrs by Annexin V/propidium iodide staining based flow cytometry (reference value: 0.29%); assay type: functional
[7] = system: MOLM-13; test: Antitumour activity against human MOLM13 cells xenografted in po dosed NOD/SCID mouse assessed as tumour growth inhibition administered daily for 10 days; assay type: functional, organism-based
[8] = Toxicity in NOD/SCID mouse xenografted with human MV4-11 cells at 1 to 3 mg/kg, po qd for 14 days; assay type: organism-based; details: in vivo, 336 h
[9] = system: MV4-11; test: Cell cycle arrest in human MV4-11 cells assessed as accumulation at G2/M phase at 30 nM after 24 hrs by propidium iodide staining-based flow cytometric analysis (reference value: 21.12%); assay type: functional
[10] = system: MOLM-13; test: Induction of apoptosis in human MOLM13 cells assessed as early apoptotic cells at 10 nM after 48 hrs by Annexin V/propidium iodide staining based flow cytometry (reference value: 5.97%); assay type: functional
[11] = system: MV4-11; test: Antitumour activity against human MV4-11 cells xenografted in po dosed NOD/SCID mouse assessed as tumour growth inhibition administered daily for 14 days; assay type: functional, organism-based
[12] = system: Receptor-type tyrosine-protein kinase FLT3 (Homo sapiens), P36888 [UNDEFINED MUTATION]; test: Inhibition of FLT3 ITD mutant in human MV4-11 cells assessed as ratio of phosphorylated STAT5 to beta-actin level at 30 nM after 2 hrs by Western blot analysis relative to control; assay type: cell-based
[13] = system: MV4-11; test: Cell cycle arrest in human MV4-11 cells assessed as accumulation at G0/G1 phase at 30 nM after 24 hrs by propidium iodide staining-based flow cytometric analysis (reference value: 48.76%); assay type: functional
[14] = system: MOLM-13; test: Induction of apoptosis in human MOLM13 cells assessed as viable cells at 1 uM after 48 hrs by Annexin V/propidium iodide staining based flow cytometry (reference value: 88.2%); assay type: functional; details: MOLM-13, 48 h, read-out: Activity
[15] = target: Receptor-type tyrosine-protein kinase FLT3 (Homo sapiens) (UniProt P36888); test: Inhibition of FLT3 autophosphorylation in human MOLM13 cells assessed as ratio of phosphorylated FLT3 to beta-actin level at 30 nM after 2 hrs by Western blot analysis relative to control; assay type: cell-based
[16] = system: MV4-11; test: cells; details: Homo sapiens, MV4-11, 72 h
Description: Antiproliferative activity against human MV4-11 cells harboring FLT3-ITD mutant measured after 72 hrs by MTT assay

[17] = system: MV4-11; test: Induction of apoptosis in human MV4-11 cells assessed as early apoptotic cells at 1 nM after 48 hrs by Annexin V/propidium iodide staining based flow cytometry (reference value: 2.76%); assay type: functional
[18] = system: MV4-11; test: Induction of apoptosis in human MV4-11 cells assessed as viable cells at 10 uM after 48 hrs by Annexin V/propidium iodide staining based flow cytometry (reference value: 94.4%); assay type: functional; details: MV4-11, 48 h, read-out: Activity
[19] = system: MV4-11; test: Antitumour activity against human MV4-11 cells xenografted in NOD/SCID mouse assessed as tumour growth inhibition at 1 mg/kg, po qd for 14 days measured every two days during compound dosing by caliper method relative to control; assay type: functional; details: MV4-11, po, read-out: TGI
[20] = system: MV4-11; test: Inhibition of MAPK in human MV4-11 cells assessed as ratio of phosphorylated ERK to beta-actin level at 30 nM after 2 hrs by Western blot analysis relative to control; assay type: cell-based
[21] = system: RS4-11; test: Antiproliferative activity against human RS4:11 cells harboring wild-type FLT3 measured after 72 hrs by MTT assay; assay type: functional, cell-based; details: RS4-11, 72 h
[22] = Tmax in Sprague-Dawley rat at 5 mg/kg, po by LC-MS/MS analysis; assay type: ADME, organism-based; details: in vivo
[23] = system: MOLM-13; test: Cell cycle arrest in human MOLM13 cells assessed as accumulation at S phase at 30 nM after 24 hrs by propidium iodide staining-based flow cytometric analysis (reference value: 41.95%); assay type: functional
[24] = system: MOLM-13; test: Cell cycle arrest in human MOLM13 cells assessed as accumulation at G2/M phase at 30 nM after 24 hrs by propidium iodide staining-based flow cytometric analysis (reference value: 13.52%); assay type: functional

Kd [5]: 4.37 nM | fold change (FC) [12]: 0 | fold change (FC) [15]: 0 | IC50 [16]: 0.089 nM | IC50 [21]: > 1000 nM | Tmax [22]: 45 min
Structure (SMILES): C=CCn1cc(-c2ccc(NC(=O)Nc3cc(C(C)(C)C)on3)cc2)c2c(N)ncnc21
Activity [1]: Dose-dependent effect | viability at 0.01 µM [2]: 79.3% | Activity [3]: 2.13% | Activity [4]: 66.4% | Activity [6]: 0.76% | TGI [7]: Dose-dependent effect | Activity [8]: Non-Toxic | Activity [9]: 1.79% | Activity [10]: 15.5% | TGI [11]: Dose-dependent effect | Activity [13]: 96.25% | viability at 1 µM [14]: 29% | Activity [17]: 2.56% | viability at 10 µM [18]: 18.1% | inhibition in vivo at 1 mg/kg [19]: 70.5% | fold change (FC) [20]: 0 | Activity [23]: 2.84% | Activity [24]: 2.47%
